Test results reported in ChEMBL document CHEMBL4715914, “Chemical validation of a druggable site on Hsp27/HSPB1 using in silico solvent mapping and biophysical methods” (Bioorg Med Chem, 2021).
Activity calls are given as the source filed them. The calls are words filed in the database; no cut-off is given here.

Experiments:
[1] = target: Heat shock protein beta-1 (Homo sapiens, UniProt P04792); assay: Binding affinity to HSP27 (79 to 176 residues) (unknown origin) expressed in Escherichia coli BL21 (DE3) cells by HSQC NMR analysis; conditions: for Kd: read-out: Kd(app)
Sequence of Heat shock protein beta-1 (P04792 whole entry, the tested form may be a part): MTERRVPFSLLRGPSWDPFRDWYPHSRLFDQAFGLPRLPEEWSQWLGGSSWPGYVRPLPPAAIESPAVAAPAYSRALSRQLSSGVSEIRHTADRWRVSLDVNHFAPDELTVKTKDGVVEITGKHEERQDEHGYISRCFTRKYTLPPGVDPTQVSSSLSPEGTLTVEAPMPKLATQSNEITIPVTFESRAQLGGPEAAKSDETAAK

[2] = Binding affinity to HSP27 L21A mutant (79 to 176 residues) (unknown origin) expressed in Escherichia coli BL21 (DE3) cells by HSQC NMR analysis; design: species or system Homo sapiens; conditions: read-out: Kd(app)
[3] = Binding affinity to HSP27 V23A mutant (79 to 176 residues) (unknown origin) expressed in Escherichia coli BL21 (DE3) cells by HSQC NMR analysis; design: species or system Homo sapiens; conditions: read-out: Kd(app)
[4] = Binding affinity to HSP27 H46A mutant (79 to 176 residues) (unknown origin) expressed in Escherichia coli BL21 (DE3) cells by HSQC NMR analysis; design: species or system Homo sapiens; conditions: read-out: Kd(app)
[5] = Binding affinity to HSP27 T61L mutant (79 to 176 residues) (unknown origin) expressed in Escherichia coli BL21 (DE3) cells by HSQC NMR analysis; design: species or system Homo sapiens; conditions: read-out: Kd(app)
[6] = Binding affinity to HSP27 I56A mutant (79 to 176 residues) (unknown origin) expressed in Escherichia coli BL21 (DE3) cells by HSQC NMR analysis; design: species or system Homo sapiens; conditions: read-out: Kd(app)
[7] = Binding affinity to HSP27 C59A mutant (79 to 176 residues) (unknown origin) expressed in Escherichia coli BL21 (DE3) cells by HSQC NMR analysis; design: species or system Homo sapiens; conditions: read-out: Kd(app)

SMILES: O=[N+]([O-])c1cc(Oc2ccc(F)cc2F)ccc1Oc1ccc(F)cc1F
- Kd(app) [1]: inactive

SMILES: O=C(Oc1ccc(F)cc1F)c1ccc([N+](=O)[O-])cc1
- Kd(app) [1]: inactive

SMILES: O=[N+]([O-])c1ccc(Oc2ccc(F)cc2F)c([N+](=O)[O-])c1
- Kd [2]: 42 µM
- Kd [3]: 69 µM
- Kd [4]: 240 µM
- Kd [5]: 32 µM
- Kd [6]: 63 µM
- Kd [7]: 67 µM

SMILES: O=[N+]([O-])c1cccnc1Oc1ccc(I)cc1
- Kd(app) [1]: inactive

SMILES: O=[N+]([O-])c1cccnc1Oc1ccc(F)cc1F
- Kd [1]: 177 µM

SMILES: Nc1cccnc1Oc1ccc(F)cc1F
- Kd [1]: > 1000 µM
